Experimental data from patent US4400377A, “Use of polypeptides as analgesic drugs” (priority 1982, dated 1983).
Read-outs that look alike come from different tables or passages of the source. Square brackets hold non-standard residues; d marks the D form. Peptide text beside a SMILES is read from it. sY = N[C@@H](Cc1ccc(OS(=O)(=O)O)cc1)C(=O)O; pGlu = O=C1CC[C@@H](C(=O)O)N1

What was measured:
[1] = test system: patients with pain after surgery
[2] = test system: patients suffering from chronic pain in cancer diseases; settings: i.v. bolus 1 nanogram/kg, single patients

## CSCC[C@H](NC(=O)[C@H](Cc1c[nH]c2ccccc12)NC(=O)CNC(=O)[C@@H](NC(=O)[C@H](Cc1ccc(OS(=O)(=O)O)cc1)NC(=O)[C@H](CC(=O)O)NC(=O)[C@H](CCC(N)=O)NC(=O)[C@@H]1CCC(=O)N1)[C@@H](C)O)C(=O)N[C@@H](CC(=O)O)C(=O)N[C@@H](Cc1ccccc1)C(N)=O [Ceruletide, ceruletide] ([pGlu]QD[sY]TGWMDF-NH2)
[1]; i.m. 0.05 micrograms/kg, single patients (incl. second injection in patients 34, 40)
  Side-effects: None
[1]; i.m. 0.1 micrograms/kg, single patients
  Side-effects: None and Burning sensation at the injection site and pain sensation at the injection site
[2]
  Side-effects: None
